Assay results as given in patent US6821774B1, “Compositions and methods for increasing cholesterol efflux and raising HDL using ATP binding cassette transporter ABC1” (CV Therapeutics, Inc., priority 1999, dated 2004).

Experiments:
normal fibroblasts [1] = assay: Apo A-I-mediated cholesterol efflux from normal fibroblasts in the presence of ABC1 transport inhibitors; assay type: cell-based, human; details: 6 hours; 5 μg/ml apo A-I; 0, 0.2 mM or 0.4 mM inhibitor
Experimental: To test whether inhibition of ABC1 could affect the process of apolipoprotein-mediated cholesterol efflux, two compounds reported to be ABC1 inhibitors were tested in assays which monitor apolipoprotein mediated cholesterol efflux. […] The apolipoprotein-mediated cholesterol efflux assays were performed as described in Example 1 with the noted changes. Cholesterol-loaded and [^3H]cholesterol-labeled normal fibroblasts (n=3) were incubated for 6 hours with or without 5 μg/ml apo A-1 and either 0, 0.2 mM, or 0.4 mM DIDS. In addition, cholesterol-loaded and [^3H]cholesterol-labeled normal fibroblasts (n=3) were incubated for 6 hours with or without 5 μg/ml apo A-I and either 0, 0.2 mM, or 0.4 mM BSP. […] The results are shown in FIG. 5 as the mean±SD (n=3) of efflux in the presence of apo A-I after subtraction of values for apo A-I-free medium. […] The results of these tests mimic the efflux defect in fibroblasts derived from patients with TD, described in Example 1.

ABC1 = ABC1 (Mus musculus, UniProt P41233); details: Becq et al. 1997; Hamon et al. 1997; cited from earlier work
ABC1 mRNA [2] = assay: ABC1 mRNA expression by RT-PCR in normal fibroblasts; assay type: cell-based, human
Experimental: (§1) To determine whether ABC1 plays a rate-limiting role in cellular sterol efflux, the synthesis of ABC1 was measured under various cellular conditions related to cholesterol efflux processes. Specifically, normal fibroblasts and TD fibroblasts were individually exposed to conditions of excess cAMP, cholesterol, or Apo A-I. Cell cultures of normal skin fibroblasts and TD1 and TD2 fibroblasts were prepared as described in Example 1. The level of ABC1 mRNA was measured by RT-PCR. Cell cultures: Immortalized cell cultures of normal skin fibroblasts and TD1 and TD2 fibroblasts were prepared as described in Example 1. Cells were grown to subconfluence in DMEM/10% FBS before replacement with DMEM/BSA and the indicated additive for 24 or 48 hours. RNA was prepared as described in Example 2. RT-PCR: Quantitative PCR was carried out using the GeneAmp 5700 Sequence Detection System (Perkin-Elmer Applied Biosystems, Foster City, Calif.). Briefly, 500 ng of DNase-treated mRNA was reverse transcribed using random hexamer primers at 2.5 μM. Approximately 5% of this reaction was amplified by PCR using the SYBR green core kit (PE Applied Biosystems, Foster City, Calif.; Cat. #4304886) and human ABC1 primers […] […] The mRNA in each sample was quantitated by detecting the increase in fluorescence caused by SYBR green binding to the double-stranded amplification product generated during each PCR cycle. […]

ABC1 protein = assay: Cell-surface labeling and immunoprecipitation of ABC1 protein in normal and TD1 fibroblasts; assay type: cell-based, human; details: serum deprivation and cholesterol-loading (30 μg/ml, 48 hours), normal and TD1 cells
Experimental: Cell-surface labeling and immunoprecipitation was used to determine whether increased expression of ABC1 protein in the plasma membrane is correlated with an increase in cholesterol efflux (FIG. 10). The relative amount of ABC1 on the cell surface was determined by cross-linking surface proteins on intact cells with the membrane-impermeable agent sulfo-NHS-biotin, followed by the steps of membrane solubilization, immunoprecipitation with ABC1 antibody, SDS-PAGE, and detection with streptavidin.
Both normal and TD1 cells were cultured under control conditions and conditions known to increase apolipoprotein-mediated cholesterol efflux (Oram, et al., J. Lip. Res., 40: 1769-1781 (1999)). […] Cholesterol-loaded cells were grown to confluence in DMEM/10% FBS and then incubated in DMEM/BSA for 48 hours with 30 μg/ml cholesterol plus 18 hours with no additives (cholesterol). […]
Detection of ABC1 Protein: The eluted biotinylated proteins were subjected to SDS-PAGE (6% gel; 150V, 5 hours) and transferred to nitrocellulose membrane (200 mA, 18 hours). The nitrocellulose was probed with streptavidin-horse radish peroxidase (Amersham Pharmacia, Piscataway, N.J.; Cat. #RPN 1231) diluted 300-fold and detected by enhanced chemiluminescence labeling (ECL) according to vendor's protocol (Amersham Pharmacia, Piscataway, N.J.). […]

RAW 264.7 cells [3] = assay: Apo A-I-mediated cholesterol efflux assay in cholesterol-loaded RAW 264.7 macrophage cells; assay type: cell-based, mouse; details: apo A-I (20 μg/ml) and rolipram 50 μM
ABC1 mRNA [4] = assay: Apo A-I-mediated cholesterol efflux from normal skin fibroblasts loaded with antisense oligonucleotide; assay type: cell-based, human; details: 30 μM oligonucleotide; apo A-I-mediated efflux after 12 hours
Experimental: Normal skin fibroblasts were labeled with [^3H]cholesterol as described in Example 1. The cells were then loaded with oligonucleotide by scraping in the presence of either 30 μM control Morpholino oligonucleotide (5′-[…]-3′ corresponding to the antisense complement of a β-globin thalassemic mRNA; SEQ ID NO: 52) or 30 μM ABC1 antisense Morpholino oligonucleotide (5′-[…]-3′; SEQ ID NO: 53) and reseeding on new dishes. Control cells were mock-loaded after [^3H]cholesterol-labeling by scraping and reseeding in the absence of oligonucleotide. […] The results are shown in FIG. 6 as the mean±SEM of three separate experiments, normalized to the value for apo A-I-specific efflux in the absence of oligonucleotide in each experiment.

ABC1 mRNA [5] = assay: ABC1 mRNA expression by RT-PCR in Tangier disease (TD1, TD2) fibroblasts; assay type: cell-based, human; details: 10 μg/ml apo A-I
Experimental: as §1

normal fibroblasts [6] = assay: Cholesterol efflux from cholesterol-laden normal fibroblasts; assay type: cell-based, human; details: albumin plus apo A-I 10 μg/ml; up to 48 hours
Experimental: (§2) Cell Cultures: Human fibroblasts were obtained from skin explants from two normal subjects (NL1) and three unrelated patients with Tangier disease ([…]). TD1 cells were obtained from a person with extremely low plasma HDL cholesterol and apo A-I levels and clinical symptoms typical of Tangier disease. […] TD3 cells were obtained from a person with Tangier disease who presented with orange tonsil remnants, asymmetrical motor neuropathy, plasma HDL cholesterol of 5 mg/dL, and LDL cholesterol of 16 mg/dL (Lawn et at., J. Clin. Invest., 104, R25-R31 (1999)). The normal cells and TD subject cells were immortalized as described in Oram et al., J. Lipid Res., 40: 1769-1781 (1999). Briefly, the cells were transfected with amphotropic retroviruses containing vectors with inserts of human papillomavirus 16 oncogenes E6 and E7 and a neomycin resistance selectable marker. Control cells were infected with vector alone (mock-infected). Pooled cell populations were selected in the presence of G418 for two passages, after which G418 was excluded from the medium. Fibroblasts were used between the fifth and sixteenth passage (primary) or sixth and fourteenth passage (immortalized). The immortalized normal and TD cells were seeded into 16-mm wells or 35-mm dishes and grown to confluence in Dulbecco's modified Eagle's medium (DMEM) plus 10% fetal bovine serum (FBS) before experimental use. […]

RAW 264.7 cells [7] = assay: Apo A-I-mediated cholesterol efflux assay in cholesterol-loaded RAW 264.7 macrophage cells; assay type: cell-based, mouse
Experimental: To determine whether ligands for nuclear receptors affect the process of apolipoprotein-mediated cholesterol efflux, various ligands were tested using the apo A-I-mediated cholesterol efflux assay described in Example 12. The nuclear receptor superfamily includes several members, such as the liver receptor LXR, the retinoid receptor RXR, and the peroxisome proliferator-activated receptor PPAR, which have been implicated in lipid metabolism (Russell. D. W., Cell, 97:539-542 (1999); Spiegelman, B. W., Cell, 93:153-155 (1998); Janowski et al., Nature, 383:728-731 (1996)). […] Using the above-described assay, 9 cis-retinoic acid (RXR ligand), oxysterol (LXR ligand), and fenfibrate (PPAR ligand) was tested to determine the effect on cholesterol efflux.
To determine whether eicosanoids affect the process of apolipoprotein-mediated cholesterol efflux, PGE1 and PG12 were tested using the apo A-I-mediated cholesterol efflux assay described in Example 12.

TD fibroblasts = assay: Cholesterol efflux from cholesterol-laden Tangier disease fibroblasts; assay type: cell-based, human; details: albumin plus apo A-I 10 μg/ml
Experimental: as §2

ABC1, sequence (P41233 whole entry): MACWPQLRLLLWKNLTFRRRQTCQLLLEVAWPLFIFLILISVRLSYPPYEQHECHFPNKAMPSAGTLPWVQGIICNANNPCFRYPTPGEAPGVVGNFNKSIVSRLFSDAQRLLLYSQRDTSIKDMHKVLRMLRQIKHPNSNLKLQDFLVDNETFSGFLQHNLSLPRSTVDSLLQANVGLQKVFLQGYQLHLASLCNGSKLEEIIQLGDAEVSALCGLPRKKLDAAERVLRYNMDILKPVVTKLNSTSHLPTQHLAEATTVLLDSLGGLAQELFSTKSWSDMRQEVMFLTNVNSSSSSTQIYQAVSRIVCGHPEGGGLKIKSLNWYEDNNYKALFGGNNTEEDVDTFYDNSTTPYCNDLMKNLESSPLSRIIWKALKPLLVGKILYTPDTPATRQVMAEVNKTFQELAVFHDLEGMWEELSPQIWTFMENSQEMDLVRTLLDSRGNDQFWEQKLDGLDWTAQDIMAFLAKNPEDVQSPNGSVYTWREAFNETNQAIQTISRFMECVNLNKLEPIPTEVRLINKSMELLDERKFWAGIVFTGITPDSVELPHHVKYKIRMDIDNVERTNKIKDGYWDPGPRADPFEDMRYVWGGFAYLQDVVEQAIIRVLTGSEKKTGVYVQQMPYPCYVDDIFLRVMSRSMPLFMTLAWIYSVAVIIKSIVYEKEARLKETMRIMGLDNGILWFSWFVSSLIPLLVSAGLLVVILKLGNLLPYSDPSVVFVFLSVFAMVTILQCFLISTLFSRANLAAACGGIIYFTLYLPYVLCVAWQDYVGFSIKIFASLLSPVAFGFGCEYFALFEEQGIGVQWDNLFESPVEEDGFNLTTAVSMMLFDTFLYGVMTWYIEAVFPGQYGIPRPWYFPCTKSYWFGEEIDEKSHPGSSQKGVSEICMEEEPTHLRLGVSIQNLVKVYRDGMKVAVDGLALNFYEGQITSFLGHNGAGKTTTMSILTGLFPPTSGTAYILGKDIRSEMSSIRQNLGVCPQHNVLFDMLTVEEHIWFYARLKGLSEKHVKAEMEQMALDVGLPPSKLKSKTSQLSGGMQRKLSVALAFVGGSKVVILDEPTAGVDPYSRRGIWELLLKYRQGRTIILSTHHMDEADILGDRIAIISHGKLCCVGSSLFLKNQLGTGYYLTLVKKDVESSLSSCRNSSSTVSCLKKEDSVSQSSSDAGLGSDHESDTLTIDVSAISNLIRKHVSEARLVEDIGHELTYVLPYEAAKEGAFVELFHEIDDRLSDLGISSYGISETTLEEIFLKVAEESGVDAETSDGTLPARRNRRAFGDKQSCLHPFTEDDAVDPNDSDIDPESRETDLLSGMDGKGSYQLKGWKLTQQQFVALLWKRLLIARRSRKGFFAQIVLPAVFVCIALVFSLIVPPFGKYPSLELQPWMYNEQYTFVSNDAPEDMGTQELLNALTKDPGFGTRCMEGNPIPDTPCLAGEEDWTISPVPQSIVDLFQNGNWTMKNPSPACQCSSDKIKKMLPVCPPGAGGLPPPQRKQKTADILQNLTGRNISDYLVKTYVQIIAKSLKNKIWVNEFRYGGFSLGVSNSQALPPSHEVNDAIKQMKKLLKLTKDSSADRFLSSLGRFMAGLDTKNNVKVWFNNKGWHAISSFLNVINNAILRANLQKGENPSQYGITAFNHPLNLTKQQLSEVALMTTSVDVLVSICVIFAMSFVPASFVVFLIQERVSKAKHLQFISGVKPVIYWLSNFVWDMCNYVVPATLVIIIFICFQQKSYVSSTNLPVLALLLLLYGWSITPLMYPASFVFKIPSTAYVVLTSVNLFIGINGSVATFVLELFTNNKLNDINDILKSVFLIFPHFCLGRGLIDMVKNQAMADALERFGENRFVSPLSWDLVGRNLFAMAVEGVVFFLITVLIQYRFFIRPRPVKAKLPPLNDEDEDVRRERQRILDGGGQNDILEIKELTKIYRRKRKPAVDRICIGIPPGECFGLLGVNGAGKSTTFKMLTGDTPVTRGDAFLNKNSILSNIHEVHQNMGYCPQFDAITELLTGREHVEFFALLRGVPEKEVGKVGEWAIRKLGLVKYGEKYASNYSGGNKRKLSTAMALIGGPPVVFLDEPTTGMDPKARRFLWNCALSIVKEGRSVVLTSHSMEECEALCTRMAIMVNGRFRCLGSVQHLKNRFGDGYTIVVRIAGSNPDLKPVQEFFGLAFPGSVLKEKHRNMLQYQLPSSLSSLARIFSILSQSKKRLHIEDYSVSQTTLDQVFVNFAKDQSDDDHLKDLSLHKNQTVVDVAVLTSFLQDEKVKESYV

O=C1OC(c2ccc(O)c(S(=O)(=O)O)c2)(c2ccc(O)c(S(=O)(=O)O)c2)c2c(Br)c(Br)c(Br)c(Br)c21 [BSP, sulphobromophthaleine]
apo A-I-mediated efflux of tritiated cholesterol (normal fibroblasts [1]): inhibited
anion transport activities of ABC1 (ABC1): inhibit anion transport activities of ABC1 in a dose-dependent fashion

CC(C)CCC[C@@H](C)[C@H]1CC[C@H]2[C@@H]3CC=C4C[C@@H](O)CC[C@]4(C)[C@H]3CC[C@]12C [cholesterol]
increase in ABC1 mRNA (ABC1 mRNA [2]; 30 μg/ml free cholesterol, 48 hours, serum-free medium, normal fibroblasts): approximately 17 fold
cell-surface expression of ABC1 (ABC1 protein): markedly increased

COc1ccc(C2CNC(=O)C2)cc1OC1CCCC1 (stereo not shown) [rolipram]
cholesterol efflux (percentage of total radiolabeled cholesterol appearing in the medium) (RAW 264.7 cells [3]): 17%

ABC1 antisense Morpholino oligonucleotide: 5′-CATGTTGTTCATAGGGTGGGTAGCTC-3′; SEQ ID NO: 53 (all phosphorodiamidate morpholino (PMO))
reduction in cholesterol efflux compared with control (β-globin) antisense oligonucleotide (ABC1 mRNA [4]): 50%

apo A-I: apolipoprotein cholesterol acceptor (Biodesign International)
change in ABC1 expression (ABC1 mRNA [5]; cholesterol-loaded TD1 cells): did not alter ABC1 expression
change in ABC1 expression (ABC1 mRNA [5]; cholesterol-loaded TD2 cells): slightly increased ABC1 expression
change in ABC1 mRNA expression (ABC1 mRNA [2]; cholesterol-loaded normal fibroblasts then 10 μg/ml apo A-I): marked decrease
efflux of [3H]-cholesterol (normal fibroblasts [6]): promoted the efflux
cholesterol efflux (percentage of total radiolabeled cholesterol appearing in the medium) (RAW 264.7 cells [7]; apo A-I only (20 μg/ml), control cells without apo A-I 3%): 5%
cholesterol efflux counts (RAW 264.7 cells [7]; control cells (apo A-I only)): 1890 c.p.m.
efflux of [3H]-cholesterol (TD fibroblasts): little or no effect
